Series [1] is described as follows: Exposure study: neratinib pharmacokinetics with and without concurrent ketoconazole. The following applies: human, in vivo, 240 mg, 240 mg neratinib. As for the experimental part:
(§1) Exposure studies were performed to determine if gastrointestinal tolerability is related to systemic exposure of neratinib maleate.

Series [2] in a line: GI tolerability with and without concurrent ketoconazole (subjects reporting GI AEs). The format is in vivo. As to the method: as §1
Subjects Reporting GI AEs

Series [3] can be described thus: Gastrointestinal adverse events in single dose clinical studies of healthy subjects. The format is in vivo, human. To be noted: 192 healthy subjects, five single doses. An excerpt:
In a clinical study, 192 healthy subjects were given five single doses of neratinib maleate. Adverse events were observed and classified as follows: • Grade 1 gastrointestinal adverse events (GI AEs) ˜25%40% • Grade 2 gastrointestinal adverse events (GI AEs) ˜15%
Grade 1 and 2 gastrointestinal adverse events predominated as the adverse events observed in clinical studies of healthy subjects.

A short description of series [4]: Adverse events in multiple dose clinical studies of cancer patients. The format is in vivo, human. To be noted: cancer patients (>400), single agent and combination. The source says: Adverse events in clinical studies of cancer patients were observed and classified as follows: • Nausea, Vomiting, Diarrhea, Dehydration, Anorexia (˜95%) • Asthenia, Fatigue (˜30-60%) • Rash (˜20-25%) • Elevated ALT, AST (<10%)

These results are taken from patent US9211264B2, “Coated drug spheroids and uses thereof for eliminating or reducing conditions such as emesis and diarrhea” (Wyeth LLC, priority 2009, dated 2015).

Where a name gives a salt, the structure may show the parent alone. Read-outs that look alike come from different tables or passages of the source.

Usually Cmax stands for the highest concentration seen after dosing. As to `CCOc1cc2ncc(C#N)c(Nc3ccc(OCc4ccccn4)c(Cl)c3)c2cc1NC(=O)/C=C/CN(C)C` [Neratinib, (E)-N-(4-(3-chloro-4-(pyridin-2-ylmethoxy)phenylamino)-3-cyano-7-ethoxyquinolin-6-yl)-4-(dimethylamino) but-2-enamide], the AUC(0-t) in series [1] (geometric mean in brackets, read-out: AUC t [Geo mean]) was determined as 727 ng·h/mL; in series [1] (value outside brackets, read-out: AUC t) it was 835 ng·h/mL. Besides, the AUC(0-inf) worked out at 802 ng·h/mL in series [1] (geometric mean in brackets, read-out: AUC∞ [Geo mean]) and 903 ng·h/mL in series [1] (value outside brackets, read-out: AUC∞). Further, the peak concentration (Cmax) in series [1] (geometric mean in brackets, read-out: Cmax [Geo mean]) turned out to be 51.5 ng/mL; in series [1] (value outside brackets, read-out: Cmax), 55.3 ng/mL. In addition, the “Subjects Reporting GI AEs: GI Disorders” value in series [2] (240 mg neratinib) came to 31.8%.

Regarding `CCOc1cc2ncc(C#N)c(Nc3ccc(OCc4ccccn4)c(Cl)c3)c2cc1NC(=O)/C=C/CN(C)C` [neratinib maleate, (E)-N-(4-(3-chloro-4-(pyridin-2-ylmethoxy)phenylamino)-3-cyano-7-ethoxyquinolin-6-yl)-4-(dimethylamino) but-2-enamide], the “Grade 2 gastrointestinal adverse events (GI AEs)” value in series [3] is given as approximately 15%. Further, in series [4], the “Asthenia, Fatigue” value is reported as 30-60%; the “Elevated ALT, AST” value is on record as less than 10%; the “Nausea, Vomiting, Diarrhea, Dehydration, Anorexia” value was approximately 95%; the Rash is 20-25%. Also, in series [2] (exposure studies with concurrent ketoconazole), the “GI tolerability (diarrhea) relation to systemic exposure” value is “not related to systemic exposure”.
